# Measured values published in article PMC8252432 (Angewandte Chemie (International Ed. in English), 2021).
# System: trypsin
# Experiment: Trypsin digestion of Angiotensin III, LC-MS
# Type: in vitro ADME
# Conditions: 10 mM phosphate buffer pH 7.4, no nanoparticle (Figure 1a)
structure (smiles),measurement,value
"CC[C@H](C)[C@H](NC(=O)[C@H](Cc1ccc(O)cc1)NC(=O)[C@@H](NC(=O)[C@@H](N)CCCN=C(N)N)C(C)C)C(=O)N[C@@H](Cc1c[nH]cn1)C(=O)N1CCC[C@H]1C(=O)N[C@@H](Cc1ccccc1)C(=O)O [A‐III, Angiotensin III]",time in which the peptide could be cleaved in buffer,120 min
